Patent US20230382926A1, “COMPOUNDS AND USES THEREOF” (The University of The West Indies, priority 2022, published 2023)

Tests used:
[1] = tested on: Carbapenem resistant Acinetobacter baumannii; assay: Broth microdilution minimum inhibitory concentration; format: cell-based; settings: compound alone
Method: (§1) Antibacterial activity of the synthesized compounds was determined following guidelines established by the Clinical and Laboratory Standards Institute M07-A10 (CLSI 2015), following the broth microdilution method. Briefly, the test articles were dissolved in 100% DMSO, diluted by 2-fold serial titrations in the same vehicle (100% DMSO), for a total of 11 concentrations. A 4 μL aliquot of each dilution was then added to 196 μL of broth medium seeded with the bacterial suspension in wells of a 96 well plate (bacterial count: 2×10^5 to 8×10^5 colony forming units/mL final). The highest test substance concentration was 1028 μg/mL, and the final vehicle concentration was 2 percent. Following incubation, the test plate was visually examined, and each well was scored for growth or complete inhibition of growth. The minimum inhibitory concentration was determined as the lowest concentration were no growth of the bacterial was observed. Each test article was assayed in duplicate.

[2] = tested on: Carbapenem resistant Klebsiella pneumoniae; assay: as above; format: cell-based; settings: compound alone
Method: as §1

[3] = tested on: Methicillin resistant Staphylococcus aureus; assay: as above; format: cell-based; settings: compound alone
Method: as §1

[4] = tested on: Multidrug resistant Pseudomonas aeruginosa; assay: as above; format: cell-based; settings: compound alone
Method: as §1

[5] = tested on: Vancomycin resistant Enterococcus faecalis; assay: as above; format: cell-based; settings: compound alone
Method: as §1

MRSA = assay: Rescue concentration of substituted phenyl azaindole derivatives; format: cell-based, Staphylococcus aureus; settings: Amoxicillin fixed at 2 μg/mL
Method: (§2) The antibiotic adjuvant activity of the SPazaBIMs were evaluated in combination with representative antibiotics (representing 13 antibiotic classes) against the 19 pathogens strains listed in Table 3. To assess the adjuvant properties of the SP-azaBIM molecules, a modified checkerboard minimum inhibitory concentration assay was used. A fixed concentration of the respective antibiotic (susceptible breakpoint concentration) was mixed with a twofold dilution series of the test SP-azaBIM (FIG. 1). This was to determine the concentration of SP-azaBIM needed potentiate the antibiotic at a clinically susceptible breakpoint concentration. Antibiotic susceptible breakpoint concentrations for the respective bacteria were determined using Clinical Laboratory Standards Institute (CLSI) criteria M100 ED31.
(§3) In this study, only those antibiotics to which the bacterial was classed as resistant were included in the adjuvant assays. In this assay we recorded the rescue concentration of the SP-BIM for a respective antibiotic. The rescue concentration was defined as the concentration of the adjuvant that reduces the minimum inhibitory concentration (MIC) of an antibiotic to the susceptibility breakpoint.
(§4) Immediately prior to testing, the respective antibiotic and SP-azaBIM was dissolved in sterile deionised water at 20× the required test concentration. Each microtiter well was then inoculated with 180 μl of bacterial inoculum of 10^6 CFU/ml in ca-MHB, and 10 μl each if the antibiotic and SP-azaBIM was added to the plates. These plates were then incubated at 35° C. for 24 h under aerobic conditions. A similar method was followed for the fastidious pathogens except that they were cultured in ca-MHB with 5% sheep blood and 5% CO2.
(§5) Bacterial growth was visually inspected after the incubation period and the rescue concentration of the test SP-azaBIM was determined as the lowest concentration of the compound needed to reduce bacterial growth by 99.99% at the susceptible breakpoint concentration of the antibiotic. For example, CLSI states that Pseudomonas aeruginosa is susceptible to the Imipenem if the MIC is ≤2 μg mL^−1. If the bacteria can tolerate this concentration in vitro, then the bacteria has an intermediate or absolute resistance toward that antibiotic. The goal was to determine the concentration of SP-azaBIM needed to cause P. aeruginosa death at 2 μg mL^−1 of Imipenem therefore restoring susceptibility of the bacteria to toward the antibiotic.
(§6) Phenyl azaindole compounds are also tested for their adjuvant activities and the method is shown in Example 39.

K. pneumoniae = assay: as above; format: cell-based; settings: for Rescue concentration, K. pneumoniae Ciprofloxacin (1 μg/mL): Ciprofloxacin fixed at 1 μg/mL; for Rescue concentration, K. pneumoniae Imipenem (1 μg/mL): Imipenem fixed at 1 μg/mL
Method: as §2, §3, §4, §5, §6

P. aeruginosa = assay: as above; format: cell-based; settings: Imipenem fixed at 1 μg/mL
Method: as §2, §3, §4
Bacterial growth was visually inspected after the incubation period and the rescue concentration of the test SP-azaBIM was determined as the lowest concentration of the compound needed to reduce bacterial growth by 99.99% at the susceptible breakpoint concentration of the antibiotic. […] If the bacteria can tolerate this concentration in vitro, then the bacteria has an intermediate or absolute resistance toward that antibiotic. […]
as §6

[6] = tested on: clinical isolate CR-K. pneumoniae 7225; assay: Non-lethal mouse peritonitis infection model; format: in vivo, Swiss albino mice; settings: monotherapy at 10 mg kg^−1; preliminary dosing experiments
Method: For both lethal and non-lethal infection models involving Carbapenem resistant Klebsiella pneumoniae suitable strains, number of mice per treatment and bacterial infection dose were predetermined in preliminary experiments.
Each mouse (n=6 per group) received an intraperitoneal (i.p.) injection of 200 μl of bacterial suspension (1×10^4 CFU ml^−1).
Mice were then treated once daily for two subsequent days (i.e. 24 h and 48 h). Twenty-four-hours after the last dose, the mice were euthanized via cervical dislocation and their spleen and liver excised, homogenized in PBS and plated onto Hichrome™ Klebsiella selective media (HiMedia Laboratories, PA, USA). The plates were incubated at 35° C. for 24 h and bacterial counts were determined (CFU g^−1 organ).
Based on the significance of the SP-azaBIMs to restore the in vitro efficacy of antibiotics against high priority pathogenic bacteria, we examined if these compounds could provide proof of concept that they could be used to treat in vivo infections. To test this, we performed both non-lethal and lethal intraperitoneal infection models in Swiss Albino mice.
There was a significant reduction in the K. pneumoniae load in both the liver (FIG. 2a) and spleen (FIG. 2b) for the combination therapies compared to the respective antibiotic monotherapies. […] Colistin (Col) (10 mg kg^−1) was used as the positive control in this case. K. pneumoniae load in the liver (FIG. 2a) and spleen (FIG. 2b) was determined by selective plating on Hichrome™ Klebsiella selective media. Data bars represent the average (n=6 mice per treatment group)±standard error.

[7] = tested on: Klebsiella pneumoniae ATCC BAA-2814; assay: Gene expression analysis by quantitative reverse transcription PCR; format: cell-based; settings: for ROB gene expression compared to untreated cells / soxS gene expression compared to untreated cells: Meropenem only 0.25 MIC (8 μg mL^−1)
Method: Cell treatment and RNA extraction: Overnight cultures of Klebsiella pneumoniae ATCC BAA-2814 grown on Brain Heart Infusion (BHI) agar was harvested and washed in phosphate buffer saline (pH=7.4) twice. Fresh Brain Heart infusion broth was inoculated with K. pneumoniae cells to a final concentration of 10^6 CFU mL^−1. Cells were subjected to the following treatments: T0—Vehicle only (ddH2O); T1—Meropenem only (0.25 MIC; 8 μg mL^−1); T2—Meropenem 0.25 MIC+SP-azaBIM 136 (2 ug mL^−1). Treated cells were incubated at 35° C. at 200 rpm and total RNA was extracted at 1 h and 6 h post exposure using TRIzol reagent (Life Technologies) following the manufacturer's protocol before eluting in DEPC treated water. Three biological replicates were included for each treatment.
Quantitative reverse transcription PCR analysis: Reverse transcription was done using the GoScript Reverse Transcriptase Kit (Promega, USA) employing a mixture (1:1) of random and oligo dT primers with 2 μg RNA as starting material in a 20-μL reaction following the manufacturers protocols. cDNA samples were then quantified by real-time PCR using specific primers in an Applied Biosystems 7500 Fast Real-Time PCR system (Life Technologies Corp., USA) and the data analysed using the 2^(−ΔΔct) method. Thermal cycling was performed using a two-step PCR amplification standard procedure at 95° C. for 30 s and 35 cycles of 95° C. for 5 s and 60° C. for 30 s. The expression levels of all the genes were normalized using the K. pneumoniae RNA polymerase sigma factor (rpoD) gene as an internal standard.
To examine this hypothesis, we investigated the expression of genes in K. pneumoniae ATCC […] that were affected by SP-azaBIM 136 treatment. Expression of key transcription factors and their associated downstream resistance and pathogenicity genes was examined in Klebsiella pneumoniae cells treated with meropenem and a combination of meropenem and SP-azaBIM 136. Cells in the exponential phase were either treated with 0.25 MIC (8 μg mL^−1) of Meropenem only or a combination of 0.25 MIC meropenem and 10 μg mL^−1 of SP-azaBIM 136. Untreated cells served as the control for baseline gene expression. Cells were exposed to each agent for 1 h and 6 h, after which the total RNA was extracted, and cDNA synthesis performed. […] The addition of SP-azaBIM 136 was theorized to revert the expression of the relevant genes closer to baseline expression levels.

COc1ccc(C(O)c2c[nH]c3cnc(Br)cc23)cc1OC (stereo not shown) [3,4 Di methoxy 5Br-6aza-OH, (5-bromo-1H-pyrrolo[2,3-c]pyridin-3-yl)(3,4-dimethoxyphenyl)methanol]
MIC [1]: < 1020 µg/mL
MIC [2]: < 1020 µg/mL
MIC [3]: < 1020 µg/mL
MIC [4]: < 1020 µg/mL
MIC [5]: < 1020 µg/mL
Rescue concentration, MRSA Amoxicillin (2 μg/mL) (MRSA): 2 µg/mL
Rescue concentration, K. pneumoniae Ciprofloxacin (1 μg/mL) (K. pneumoniae): <256 µg/mL
Rescue concentration, K. pneumoniae Imipenem (1 μg/mL) (K. pneumoniae): <256 µg/mL
Rescue concentration, P. aeruginosa Imipenem (1 μg/mL) (P. aeruginosa): <256 µg/mL

O=[N+]([O-])c1cccc(C(O)c2c[nH]c3ncccc23)c1 (stereo not shown) [Compound 3NO2-7aza-OH, (3-nitrophenyl)(1H-pyrrolo[2,3-b]pyridin-3-yl)methanol]
MIC [1]: < 1020 µg/mL
MIC [2]: < 1020 µg/mL
MIC [3]: < 1020 µg/mL
MIC [4]: < 1020 µg/mL
MIC [5]: < 1020 µg/mL
Rescue concentration, MRSA Amoxicillin (2 μg/mL) (MRSA): <256 µg/mL
Rescue concentration, K. pneumoniae Ciprofloxacin (1 μg/mL) (K. pneumoniae): <256 µg/mL
Rescue concentration, K. pneumoniae Imipenem (1 μg/mL) (K. pneumoniae): <256 µg/mL
Rescue concentration, P. aeruginosa Imipenem (1 μg/mL) (P. aeruginosa): <256 µg/mL

O=Cc1cccc(C(O)c2c[nH]c3cnccc23)c1 (stereo not shown) [ISO-6aza-OH, 3-(hydroxy(1H-pyrrolo[2,3-c]pyridin-3-yl)methyl)benzaldehyde]
MIC [1]: < 1020 µg/mL
MIC [2]: < 1020 µg/mL
MIC [3]: < 1020 µg/mL
MIC [4]: < 1020 µg/mL
MIC [5]: < 1020 µg/mL
Rescue concentration, MRSA Amoxicillin (2 μg/mL) (MRSA): 64 µg/mL
Rescue concentration, K. pneumoniae Ciprofloxacin (1 μg/mL) (K. pneumoniae): <256 µg/mL
Rescue concentration, K. pneumoniae Imipenem (1 μg/mL) (K. pneumoniae): <256 µg/mL
Rescue concentration, P. aeruginosa Imipenem (1 μg/mL) (P. aeruginosa): <256 µg/mL

C[C@@H](O)[C@H]1C(=O)N2C(C(=O)O)=C(S[C@@H]3CN[C@H](C(=O)N(C)C)C3)[C@H](C)[C@H]12 [Meropenem, reference compound]
Efficacy of antibiotic monotherapy against K. pneumoniae 7225 [6]: ineffective
mexA efflux pump gene expression above untreated cells (peak) ([7]; Meropenem only): 8.7 folds
norB efflux pump gene expression above untreated cells (peak) ([7]; Meropenem only): 2.2 folds
ROB gene expression compared to untreated cells ([7]; 1 h): approximately 3 folds
ROB gene expression compared to untreated cells ([7]; 6 h): 12 folds
soxS gene expression compared to untreated cells ([7]; 6 h): 18 folds
soxS gene expression compared to untreated cells ([7]; initial (1 h)): 3 folds

Nc1ccc(C(O)c2c[nH]c3cnccc23)cc1 (stereo not shown) [Compound 4NH2-6aza-OH, (4-aminophenyl)(1H-pyrrolo[2,3-c]pyridin-3-yl)methanol]
MIC [1]: < 1020 µg/mL
MIC [2]: < 1020 µg/mL
MIC [3]: < 1020 µg/mL
MIC [4]: < 1020 µg/mL
MIC [5]: < 1020 µg/mL
Rescue concentration, MRSA Amoxicillin (2 μg/mL) (MRSA): 8 µg/mL
Rescue concentration, K. pneumoniae Ciprofloxacin (1 μg/mL) (K. pneumoniae): 64 µg/mL
Rescue concentration, K. pneumoniae Imipenem (1 μg/mL) (K. pneumoniae): 16 µg/mL
Rescue concentration, P. aeruginosa Imipenem (1 μg/mL) (P. aeruginosa): 128 µg/mL

O=[N+]([O-])c1ccc(C(O)c2c[nH]c3cnc(Br)cc23)cc1 (stereo not shown) [4NO2-5Br-6aza-OH, (5-bromo-1H-pyrrolo[2,3-c]pyridin-3-yl)(4-nitrophenyl)methanol]
MIC [1]: < 1020 µg/mL
MIC [2]: < 1020 µg/mL
MIC [3]: < 1020 µg/mL
MIC [4]: < 1020 µg/mL
MIC [5]: < 1020 µg/mL
Rescue concentration, MRSA Amoxicillin (2 μg/mL) (MRSA): 32 µg/mL
Rescue concentration, K. pneumoniae Ciprofloxacin (1 μg/mL) (K. pneumoniae): <256 µg/mL
Rescue concentration, K. pneumoniae Imipenem (1 μg/mL) (K. pneumoniae): <256 µg/mL
Rescue concentration, P. aeruginosa Imipenem (1 μg/mL) (P. aeruginosa): <256 µg/mL

Nc1cccc(C(O)c2c[nH]c3cnccc23)c1 (stereo not shown) [Compound 3NH2-6aza-OH, (3-aminophenyl)(1H-pyrrolo[2,3-c]pyridin-3-yl)methanol]
MIC [1]: < 1020 µg/mL
MIC [2]: < 1020 µg/mL
MIC [3]: < 1020 µg/mL
MIC [4]: < 1020 µg/mL
MIC [5]: < 1020 µg/mL
Rescue concentration, MRSA Amoxicillin (2 μg/mL) (MRSA): 8 µg/mL
Rescue concentration, K. pneumoniae Ciprofloxacin (1 μg/mL) (K. pneumoniae): 64 µg/mL
Rescue concentration, K. pneumoniae Imipenem (1 μg/mL) (K. pneumoniae): 32 µg/mL
Rescue concentration, P. aeruginosa Imipenem (1 μg/mL) (P. aeruginosa): 32 µg/mL

Oc1ccc(C(O)c2c[nH]c3ncccc23)cc1 (stereo not shown) [Compound 4OH-7aza-OH, 4-(hydroxy(1H-pyrrolo[2,3-b]pyridin-3-yl)methyl)phenol]
MIC [1]: < 1020 µg/mL
MIC [2]: < 1020 µg/mL
MIC [3]: < 1020 µg/mL
MIC [4]: < 1020 µg/mL
MIC [5]: < 1020 µg/mL
Rescue concentration, MRSA Amoxicillin (2 μg/mL) (MRSA): 128 µg/mL
Rescue concentration, K. pneumoniae Ciprofloxacin (1 μg/mL) (K. pneumoniae): <256 µg/mL
Rescue concentration, K. pneumoniae Imipenem (1 μg/mL) (K. pneumoniae): <256 µg/mL
Rescue concentration, P. aeruginosa Imipenem (1 μg/mL) (P. aeruginosa): <256 µg/mL
